In PMC12586182 (Frontiers in Oncology, 2025):

Assays:
INSR = biological target: T1, INSR (Homo sapiens, UniProt P06213); assay: Kinase panel profiling at 1 µmol/L (mobility shift assay, Carna); type: biochemical; conditions: 1 µmol/L of BTK inhibitor
T1 construct: purchased Carna Biosciences

IRAK1 = biological target: T2, IRAK1 (Homo sapiens, UniProt P51617); assay: as above; type: biochemical; conditions: 1 µmol/L of BTK inhibitor
T2 construct: purchased Carna Biosciences

PAK4 = biological target: T3, PAK4 (Homo sapiens, UniProt O96013); assay: as above; type: biochemical; conditions: 1 µmol/L of BTK inhibitor
T3 construct: purchased Carna Biosciences

CaMK1α = biological target: T4, CaMK1α (Homo sapiens, UniProt Q14012); assay: as above; type: biochemical; conditions: 1 µmol/L of BTK inhibitor
T4 construct: purchased Carna Biosciences

MET = biological target: T5, MET (Homo sapiens, UniProt P08581); assay: as above; type: biochemical; conditions: 1 µmol/L of BTK inhibitor
T5 construct: purchased Carna Biosciences

CSK = CSK (Homo sapiens, UniProt P41240); assay: as above; conditions: for Percentage inhibition of kinase enzyme activity: CSK, 1 µmol/L of BTK inhibitor
PIM2 = biological target: T6, PIM2 (Homo sapiens, UniProt Q9P1W9); assay: as above; type: biochemical; conditions: 1 µmol/L of BTK inhibitor
T6 construct: purchased Carna Biosciences

TEC = biological target: T7, TEC (Homo sapiens, UniProt P42680); assay: Kinase enzyme activity assay (mobility shift assay, Carna); conditions: for Percentage inhibition of kinase enzyme activity: TEC, 1 µmol/L of BTK inhibitor
T7 sequence (P42680 1-631): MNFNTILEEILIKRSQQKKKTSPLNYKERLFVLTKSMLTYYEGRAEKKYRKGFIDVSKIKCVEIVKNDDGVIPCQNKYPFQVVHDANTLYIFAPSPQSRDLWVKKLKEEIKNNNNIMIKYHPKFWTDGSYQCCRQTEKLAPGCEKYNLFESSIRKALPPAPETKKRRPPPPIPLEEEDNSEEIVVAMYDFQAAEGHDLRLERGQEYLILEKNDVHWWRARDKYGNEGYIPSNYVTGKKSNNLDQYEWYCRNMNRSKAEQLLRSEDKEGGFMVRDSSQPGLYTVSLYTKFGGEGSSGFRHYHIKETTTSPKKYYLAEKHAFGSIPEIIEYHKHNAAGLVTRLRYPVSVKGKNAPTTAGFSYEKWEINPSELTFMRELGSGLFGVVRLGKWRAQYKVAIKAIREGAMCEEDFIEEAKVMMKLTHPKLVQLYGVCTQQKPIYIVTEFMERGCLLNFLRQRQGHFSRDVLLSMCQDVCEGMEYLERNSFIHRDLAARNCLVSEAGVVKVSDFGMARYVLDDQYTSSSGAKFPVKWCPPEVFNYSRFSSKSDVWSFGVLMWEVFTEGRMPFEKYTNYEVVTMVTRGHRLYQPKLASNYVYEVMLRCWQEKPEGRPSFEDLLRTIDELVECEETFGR

CaMK2δ = biological target: T8, CaMK2δ (Homo sapiens, UniProt Q13557); assay: Kinase panel profiling at 1 µmol/L (mobility shift assay, Carna); type: biochemical; conditions: 1 µmol/L of BTK inhibitor
T8 construct: purchased Carna Biosciences

PKD1 = biological target: T9, PKD1 (Homo sapiens, UniProt Q15139); assay: as above; type: biochemical; conditions: 1 µmol/L of BTK inhibitor
T9 construct: purchased Carna Biosciences
T9 sequence (Q15139 1-912): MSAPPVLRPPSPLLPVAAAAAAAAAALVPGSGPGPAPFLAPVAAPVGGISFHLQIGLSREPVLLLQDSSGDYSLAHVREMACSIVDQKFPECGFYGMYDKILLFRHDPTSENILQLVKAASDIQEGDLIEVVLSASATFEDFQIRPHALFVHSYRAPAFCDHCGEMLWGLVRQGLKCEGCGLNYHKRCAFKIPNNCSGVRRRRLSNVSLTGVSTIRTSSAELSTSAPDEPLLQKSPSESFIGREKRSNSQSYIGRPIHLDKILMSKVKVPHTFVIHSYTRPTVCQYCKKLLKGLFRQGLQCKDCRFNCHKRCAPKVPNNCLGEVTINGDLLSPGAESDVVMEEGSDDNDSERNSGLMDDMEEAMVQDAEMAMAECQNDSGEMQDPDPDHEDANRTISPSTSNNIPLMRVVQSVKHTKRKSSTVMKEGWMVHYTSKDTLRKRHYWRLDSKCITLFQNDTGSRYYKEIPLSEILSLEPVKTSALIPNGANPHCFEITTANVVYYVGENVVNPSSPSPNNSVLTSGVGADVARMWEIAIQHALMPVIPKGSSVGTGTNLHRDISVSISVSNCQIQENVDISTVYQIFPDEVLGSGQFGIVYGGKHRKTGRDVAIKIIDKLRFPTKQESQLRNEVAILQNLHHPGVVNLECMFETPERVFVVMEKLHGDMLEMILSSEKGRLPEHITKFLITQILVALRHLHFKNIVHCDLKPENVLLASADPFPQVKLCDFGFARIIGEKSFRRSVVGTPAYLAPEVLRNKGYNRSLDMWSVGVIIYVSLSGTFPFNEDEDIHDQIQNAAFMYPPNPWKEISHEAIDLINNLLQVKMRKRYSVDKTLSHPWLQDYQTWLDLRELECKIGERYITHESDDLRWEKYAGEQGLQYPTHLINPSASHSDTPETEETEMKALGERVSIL

GSK3α = biological target: T10, GSK3α (Homo sapiens, UniProt P49840); assay: as above; type: biochemical; conditions: 1 µmol/L of BTK inhibitor
T10 construct: purchased Carna Biosciences

PRKX = biological target: T11, PRKX (Homo sapiens, UniProt P51817); assay: as above; type: biochemical; conditions: 1 µmol/L of BTK inhibitor
T11 construct: purchased Carna Biosciences
T11 sequence (P51817 1-358): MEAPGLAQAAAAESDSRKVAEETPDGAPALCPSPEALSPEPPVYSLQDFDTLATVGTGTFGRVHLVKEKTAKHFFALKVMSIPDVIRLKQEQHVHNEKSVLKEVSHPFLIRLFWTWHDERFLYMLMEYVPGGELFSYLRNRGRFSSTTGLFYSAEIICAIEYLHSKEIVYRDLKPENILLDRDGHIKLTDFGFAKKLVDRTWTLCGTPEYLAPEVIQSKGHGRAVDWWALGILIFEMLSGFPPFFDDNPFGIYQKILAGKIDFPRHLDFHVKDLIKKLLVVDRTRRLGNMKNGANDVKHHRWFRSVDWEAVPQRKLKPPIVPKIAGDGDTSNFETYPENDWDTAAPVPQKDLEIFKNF

TIE2 = biological target: T12, TIE2 (Homo sapiens, UniProt Q02763); assay: as above; type: biochemical; conditions: 1 µmol/L of BTK inhibitor
T12 construct: purchased Carna Biosciences

FYN [isoform b] = biological target: T13, FYN [isoform b] (Homo sapiens, UniProt P06241); assay: as above; type: biochemical; conditions: 1 µmol/L of BTK inhibitor
T13 construct: purchased Carna Biosciences
T13 sequence (P06241 1-534 isoform P06241-2): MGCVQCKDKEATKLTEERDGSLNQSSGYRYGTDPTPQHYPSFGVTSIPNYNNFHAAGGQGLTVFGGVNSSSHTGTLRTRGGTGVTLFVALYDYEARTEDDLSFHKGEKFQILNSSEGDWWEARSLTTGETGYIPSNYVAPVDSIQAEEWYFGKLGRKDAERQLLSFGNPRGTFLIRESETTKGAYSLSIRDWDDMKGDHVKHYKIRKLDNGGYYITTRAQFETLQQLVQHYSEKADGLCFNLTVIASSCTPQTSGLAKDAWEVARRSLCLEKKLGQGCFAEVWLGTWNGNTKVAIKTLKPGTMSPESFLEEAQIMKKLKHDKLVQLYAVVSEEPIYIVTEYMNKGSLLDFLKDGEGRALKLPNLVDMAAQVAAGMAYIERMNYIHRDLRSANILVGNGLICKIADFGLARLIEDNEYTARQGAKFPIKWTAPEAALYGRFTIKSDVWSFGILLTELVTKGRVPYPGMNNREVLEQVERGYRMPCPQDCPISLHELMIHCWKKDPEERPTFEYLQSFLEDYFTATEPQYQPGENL

T5 sequence (P08581 25-1390): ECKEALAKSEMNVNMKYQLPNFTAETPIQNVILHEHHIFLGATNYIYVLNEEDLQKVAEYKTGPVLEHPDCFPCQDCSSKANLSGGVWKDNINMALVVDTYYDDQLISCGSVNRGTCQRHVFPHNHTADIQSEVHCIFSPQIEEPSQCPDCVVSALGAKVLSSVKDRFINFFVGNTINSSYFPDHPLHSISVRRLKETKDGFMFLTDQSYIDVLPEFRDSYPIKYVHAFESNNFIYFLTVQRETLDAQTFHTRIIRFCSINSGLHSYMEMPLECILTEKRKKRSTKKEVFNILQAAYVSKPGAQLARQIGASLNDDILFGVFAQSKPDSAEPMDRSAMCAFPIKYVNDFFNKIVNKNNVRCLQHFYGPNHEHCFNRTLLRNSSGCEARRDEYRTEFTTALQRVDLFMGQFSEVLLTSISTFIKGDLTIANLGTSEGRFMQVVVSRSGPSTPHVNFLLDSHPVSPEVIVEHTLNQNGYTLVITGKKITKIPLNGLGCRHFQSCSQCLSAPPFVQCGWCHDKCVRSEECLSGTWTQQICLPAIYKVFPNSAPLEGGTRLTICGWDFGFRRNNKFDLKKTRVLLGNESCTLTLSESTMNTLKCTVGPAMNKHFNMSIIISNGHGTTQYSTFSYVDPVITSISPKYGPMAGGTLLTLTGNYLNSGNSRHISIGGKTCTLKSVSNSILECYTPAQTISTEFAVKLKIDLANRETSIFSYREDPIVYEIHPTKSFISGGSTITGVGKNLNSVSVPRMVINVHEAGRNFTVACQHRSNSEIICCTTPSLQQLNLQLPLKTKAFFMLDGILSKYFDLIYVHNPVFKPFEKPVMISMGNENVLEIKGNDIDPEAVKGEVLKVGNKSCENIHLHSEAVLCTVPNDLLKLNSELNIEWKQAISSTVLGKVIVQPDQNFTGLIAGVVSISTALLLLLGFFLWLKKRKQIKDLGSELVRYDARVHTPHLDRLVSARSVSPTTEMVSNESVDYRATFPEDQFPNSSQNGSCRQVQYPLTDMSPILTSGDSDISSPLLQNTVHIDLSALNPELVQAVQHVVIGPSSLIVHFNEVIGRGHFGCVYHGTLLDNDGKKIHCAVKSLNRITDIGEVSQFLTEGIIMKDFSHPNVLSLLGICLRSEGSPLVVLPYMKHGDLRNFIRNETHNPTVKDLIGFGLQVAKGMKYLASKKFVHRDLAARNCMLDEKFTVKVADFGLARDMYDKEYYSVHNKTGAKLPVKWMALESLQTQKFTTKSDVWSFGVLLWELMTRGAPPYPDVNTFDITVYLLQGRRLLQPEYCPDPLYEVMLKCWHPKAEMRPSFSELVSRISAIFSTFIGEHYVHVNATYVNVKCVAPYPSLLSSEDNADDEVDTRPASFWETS
Sequence of CSK (P41240 whole entry): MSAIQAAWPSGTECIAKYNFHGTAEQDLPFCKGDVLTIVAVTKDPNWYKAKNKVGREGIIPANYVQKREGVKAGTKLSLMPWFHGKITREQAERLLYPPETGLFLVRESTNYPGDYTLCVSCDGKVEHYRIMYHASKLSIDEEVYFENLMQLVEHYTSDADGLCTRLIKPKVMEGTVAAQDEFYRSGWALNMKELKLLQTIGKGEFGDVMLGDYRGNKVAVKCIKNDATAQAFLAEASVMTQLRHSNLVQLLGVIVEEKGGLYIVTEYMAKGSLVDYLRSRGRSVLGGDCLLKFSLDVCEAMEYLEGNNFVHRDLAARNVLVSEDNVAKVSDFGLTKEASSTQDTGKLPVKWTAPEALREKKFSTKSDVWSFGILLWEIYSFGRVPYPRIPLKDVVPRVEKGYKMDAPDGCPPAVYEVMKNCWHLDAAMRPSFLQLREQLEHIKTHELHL
T4 sequence (Q14012 whole entry): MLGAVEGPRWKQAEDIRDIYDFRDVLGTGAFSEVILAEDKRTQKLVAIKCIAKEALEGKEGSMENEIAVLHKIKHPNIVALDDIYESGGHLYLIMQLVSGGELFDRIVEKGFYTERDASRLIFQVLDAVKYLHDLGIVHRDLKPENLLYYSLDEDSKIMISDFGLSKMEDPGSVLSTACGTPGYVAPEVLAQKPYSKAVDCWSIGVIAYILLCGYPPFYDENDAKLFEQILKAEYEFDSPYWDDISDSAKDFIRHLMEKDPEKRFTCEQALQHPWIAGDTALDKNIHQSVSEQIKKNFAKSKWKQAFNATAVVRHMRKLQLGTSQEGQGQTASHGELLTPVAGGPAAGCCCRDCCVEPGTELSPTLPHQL
T3 sequence (O96013 whole entry): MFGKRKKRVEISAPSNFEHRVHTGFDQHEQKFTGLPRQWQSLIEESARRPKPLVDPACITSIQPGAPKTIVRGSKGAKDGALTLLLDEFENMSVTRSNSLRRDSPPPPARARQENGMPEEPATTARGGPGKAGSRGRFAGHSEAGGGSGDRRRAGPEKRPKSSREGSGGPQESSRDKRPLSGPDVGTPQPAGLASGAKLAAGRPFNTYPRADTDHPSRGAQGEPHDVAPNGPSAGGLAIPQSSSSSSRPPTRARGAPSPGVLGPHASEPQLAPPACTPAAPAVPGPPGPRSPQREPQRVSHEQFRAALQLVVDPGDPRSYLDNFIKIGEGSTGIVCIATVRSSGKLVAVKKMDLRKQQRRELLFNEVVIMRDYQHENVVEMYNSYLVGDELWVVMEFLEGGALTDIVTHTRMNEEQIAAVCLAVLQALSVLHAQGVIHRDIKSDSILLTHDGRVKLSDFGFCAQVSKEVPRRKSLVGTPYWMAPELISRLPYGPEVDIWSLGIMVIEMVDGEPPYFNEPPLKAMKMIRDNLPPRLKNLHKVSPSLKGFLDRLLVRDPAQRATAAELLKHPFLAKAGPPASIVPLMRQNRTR
T10 sequence (P49840 whole entry): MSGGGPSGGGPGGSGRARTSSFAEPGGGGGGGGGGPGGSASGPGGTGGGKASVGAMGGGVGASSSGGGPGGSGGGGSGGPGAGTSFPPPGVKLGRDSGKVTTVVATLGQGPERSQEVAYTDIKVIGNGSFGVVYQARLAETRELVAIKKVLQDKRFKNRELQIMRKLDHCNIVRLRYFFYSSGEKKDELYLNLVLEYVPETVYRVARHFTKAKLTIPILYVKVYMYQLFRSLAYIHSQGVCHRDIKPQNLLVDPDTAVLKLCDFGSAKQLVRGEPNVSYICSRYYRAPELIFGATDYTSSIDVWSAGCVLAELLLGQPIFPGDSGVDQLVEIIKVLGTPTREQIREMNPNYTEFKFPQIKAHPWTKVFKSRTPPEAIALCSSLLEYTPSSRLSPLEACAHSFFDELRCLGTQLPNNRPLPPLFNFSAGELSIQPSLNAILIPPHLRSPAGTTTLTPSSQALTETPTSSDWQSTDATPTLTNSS
T12 sequence (Q02763 23-1124): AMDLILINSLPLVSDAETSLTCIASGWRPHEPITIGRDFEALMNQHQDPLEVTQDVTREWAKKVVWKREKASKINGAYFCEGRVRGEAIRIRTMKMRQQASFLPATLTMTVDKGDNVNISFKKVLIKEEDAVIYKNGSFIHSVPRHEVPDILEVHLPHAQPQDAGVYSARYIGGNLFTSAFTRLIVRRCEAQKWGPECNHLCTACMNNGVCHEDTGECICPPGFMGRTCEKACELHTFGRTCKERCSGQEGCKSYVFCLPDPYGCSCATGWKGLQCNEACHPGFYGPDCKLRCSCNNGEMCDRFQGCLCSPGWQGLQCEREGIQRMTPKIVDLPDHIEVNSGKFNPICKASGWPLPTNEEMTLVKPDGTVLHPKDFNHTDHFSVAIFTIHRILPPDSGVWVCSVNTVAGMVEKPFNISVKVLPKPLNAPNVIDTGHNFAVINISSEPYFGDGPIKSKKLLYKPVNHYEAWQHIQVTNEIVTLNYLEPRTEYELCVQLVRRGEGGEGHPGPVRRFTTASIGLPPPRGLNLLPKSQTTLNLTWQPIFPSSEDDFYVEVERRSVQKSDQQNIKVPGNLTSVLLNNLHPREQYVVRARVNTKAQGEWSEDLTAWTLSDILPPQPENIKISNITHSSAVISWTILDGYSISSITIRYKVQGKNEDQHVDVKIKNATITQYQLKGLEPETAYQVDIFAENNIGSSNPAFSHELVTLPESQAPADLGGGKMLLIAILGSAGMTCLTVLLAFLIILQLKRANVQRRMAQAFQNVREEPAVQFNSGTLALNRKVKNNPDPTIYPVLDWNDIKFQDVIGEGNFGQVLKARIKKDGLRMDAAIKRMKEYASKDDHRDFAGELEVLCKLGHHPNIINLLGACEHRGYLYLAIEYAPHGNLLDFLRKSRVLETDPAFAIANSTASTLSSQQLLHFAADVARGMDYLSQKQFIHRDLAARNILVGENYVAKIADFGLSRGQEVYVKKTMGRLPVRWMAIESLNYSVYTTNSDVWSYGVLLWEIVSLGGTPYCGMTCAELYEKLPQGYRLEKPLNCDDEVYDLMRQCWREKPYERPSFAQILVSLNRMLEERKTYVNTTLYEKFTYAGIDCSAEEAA

| Structure (SMILES) | Percentage inhibition of kinase enzyme activity (INSR) [%] | Percentage inhibition of kinase enzyme activity (IRAK1) [%] | Percentage inhibition of kinase enzyme activity (PAK4) [%] | Percentage inhibition of kinase enzyme activity (CaMK1α) [%] | Percentage inhibition of kinase enzyme activity (MET) [%] | Percentage inhibition of kinase enzyme activity (CSK) [%] | Percentage inhibition of kinase enzyme activity (PIM2) [%] | Percentage inhibition of kinase enzyme activity (TEC) [%] | Percentage inhibition of kinase enzyme activity (CaMK2δ) [%] | Percentage inhibition of kinase enzyme activity (PKD1) [%] | Percentage inhibition of kinase enzyme activity (GSK3α) [%] | Percentage inhibition of kinase enzyme activity (PRKX) [%] | Percentage inhibition of kinase enzyme activity (TIE2) [%] | Percentage inhibition of kinase enzyme activity (FYN [isoform b]) [%] | IC50 (TEC) [nM] | inhibition at 1 µM (CSK; read-out: Inhibition of CSK) [%] | inhibition at 1 µM (TEC; read-out: Inhibition of TEC) [%] |
| --- | --- | --- | --- | --- | --- | --- | --- | --- | --- | --- | --- | --- | --- | --- | --- | --- | --- |
| CC#CC(=O)N1CCC[C@H]1c1nc(-c2ccc(C(=O)Nc3ccccn3)cc2)c2c(N)nccn12 [acalabrutinib] | -4.67 | -7.06 | -1.65 | -4.29 | 3.91 | 6.97 | -16.50 | 95.77 | -3.53 | -9.48 | 2.47 | -4.59 | -5.36 | -1.25 | – | – | – |
| C=CC(=O)N1CCC[C@@H](n2nc(-c3ccc(Oc4ccccc4)cc3)c3c(N)ncnc32)C1 [ibrutinib] | 9.51 | -10.80 | 10.65 | 13.82 | 11.55 | – | -5.09 | 91.92 | -0.83 | 3.22 | 2.24 | 0.66 | 29.04 | 86.77 | – | – | – |
| O=C(c1ccc(Oc2ccccc2)cc1Cl)c1c[nH]c2ncnc(N[C@@H]3CC[C@@H](CO)OC3)c12 [nemtabrutinib] | 95.91 | -0.39 | 53.09 | 11.41 | 42.98 | 98.66 | -5.51 | 98.70 | 14.10 | 7.45 | -3.85 | 1.65 | 99.74 | – | 0.75 | – | – |
| C=CC(=O)N1CCC([C@@H]2CCNc3c(C(N)=O)c(-c4ccc(Oc5ccccc5)cc4)nn32)CC1 [zanubrutinib] | 2.69 | – | – | – | 1.41 | – | – | – | – | – | – | – | – | – | – | – | – |
| COc1ccc(F)cc1C(=O)NCc1ccc(-c2nn([C@@H](C)C(F)(F)F)c(N)c2C(N)=O)cc1 [pirtobrutinib] | 6.62 | -6.46 | 4.35 | -9.87 | 1.44 | 79.14 | -1.91 | 87.84 | -7.24 | 4.89 | -5.30 | 9.51 | -3.49 | 15.19 | – | > 75 | > 75 |
